Data on 2 molecules can be found in patent US9403778B2, “Agents that prevent or repair skin damage” (Regents of the University of Minnesota, priority 2012, dated 2016).

Assay [1] deals with xpc. Put plainly: Test D. Murine animal studies: up-regulation of DNA repair enzyme xpc in dorsal skin. The class given is in vivo, mouse. The note with it: 5% in cream vehicle, topical.
Experimental: (§1) The UVA, UVB and Solar Simulated Light (SSL) treatment groups included mice that were left untouched in their cages (no preventative treatment) and mice treated topically on their backs with cream vehicle or AR compounds in the cream vehicle and rubbed with a glove. At 20 minutes post treatment the mice were exposed to 180 mJ/cm^2 of UVA, UVB or SSL equivalent to one hour of noon day summer sunlight. One, four, eight and twenty-four hours post UVA, UVB or SSL exposure, the mice were euthanized by IP Ketamine/Xylazine injection and bled.
(§2) The no UVA, UVB and SSL treatment groups included mice which were left untouched in their cages (no preventative treatment) and mice treated topically on their backs with cream vehicle and AR compounds in cream vehicle as indicated above. After treatment the mice were placed back into their cages, away from sunlight. One, four, eight and twenty-four hours post treatment, the no UVA, UVB and SSL treated mice were euthanized by IP Ketamine/Xylazine injection and bled.
(§3) For the animal groups above, post euthanasia, the dorsal and belly skin was collected and preserved in Zamboni's fixative for future studies. […] The skin was analyzed in-house by immunohistostaining (p53, thymine dimer, XPC and other DNA repair enzymes, collagen, elastin, etc.) and confocal microscopy. […]
The test system of assay [2] is xpc. Nature of the assay: Test E. Human skin study: xpc production.
Experimental: Human skin was obtained from the University of Minnesota BioNet Tissue Procurement Facility and stored on ice or in cell culture media until ready to be used. All samples were kept away from sunlight. The skin was cut into pieces and placed in 6-well cell culture plates with a small amount of culture media at the bottom of the well but not enough to cover the top of the tissue. Using a gloved hand, the skin was rubbed with cream vehicle or AR drug in the cream vehicle. At 20 minutes post treatment the skin was exposed to 180 mJ/cm^2 of UVA, UVB or Solar Simulated Light (SSL) equivalent to one hour of noon day summer sunlight. Post UVA, UVB or SSL exposure, additional media was placed in the bottom of the wells and the plates moved to the tissue culture incubator (37° C., 5% CO2). Samples were removed from the incubator and placed in Zamboni's fixative for future studies at one, four, eight and twenty-four hours post UVA, UVB or SSL exposure.
Samples not exposed to UVA, UVB or SSL light were placed into 6-well plates with a small amount of cell culture media but not enough to cover the top of the tissue and stored in the cell culture incubator. […]
All skin samples were analyzed in-house by immunohistostaining (p53, thymine dimer, XPC and other DNA repair enzymes, collagen, elastin, etc.) and confocal microscopy.
The test system of assay [3] is SKH-1 hairless mouse dorsal skin. Nature of the assay: Test D. Murine animal studies: thymine dimer formation (DNA damage) in dorsal skin. It is filed as in vivo.
Experimental: Test D. Murine Animal Studies
as §1, §2, §3

Take `C[C@@]12C(=O)NC(=O)N3CCCN4C(=O)NC(=O)[C@]1(C)[C@H]4[C@H]32` [Compound 10]: in the assay on xpc [1] (no SSL irradiation), the “xpc immuno-reactivity (xpc antibody)” value is on record as “significant immuno-reactivity”. Also, the “xpc levels / xpc staining in non-irradiated human skin” value in the assay with xpc [2] (human skin not exposed to SSL, compared with SSL only control) is recorded as “higher levels of xpc than the SSL only control”. Moreover, in the assay on xpc [2] (non SSL damaged human skin), the “time post application at which xpc stimulation is still evident” value was no less than 8 h. In assay [3] (5% in cream vehicle, topical, no SSL irradiation, 8 hour time point), the “thymine dimer immuno-reactivity of skin section” value was “completely negative”.
Turning to `CCCC(=O)N(CCn1cc(C)c(=O)[nH]c1=O)CCn1cc(C)c(=O)[nH]c1=O` [Compound 24a], the “xpc production in SSL exposed skin” value with xpc [1] (solar simulated light equivalent to 1 h noon time summer sun light, vs SSL cream-only control) was “stimulated xpc production”. In addition, in assay [3] (in cream vehicle, topical 20 minutes prior to UVB 6 KJ/m^2, harvested 4 hours after irradiation, vs UV only control), the “protection against thymine dimer formation (DNA damage)” value is reported as “protected against thymine dimer formation”.
